According to US20110236326A1, “Skin Whitener” (Cognis IP Management GmbH, priority 2008, published 2011):

Legend:
[1] = tested on: Melanocytes (B16 cell line); assay: Melanogenesis inhibition assay (melanin level and cellular proteins); format: cell-based; conditions: 3 days incubation; for Melanin level: B16 cells, OD 475 nm
Experimental: Melanocytes (B16 cell line) are inoculated in standard medium of cell culture with fetal calf serum (FCS). After an incubation of 3 days at 37° C. and CO2=5%, growth medium is exchanged for standard medium with a range of concentrations for the compound to be tested and a control without ingredient. After an incubation of 3 days, the level of melanin is measured by recording the optical density at 475 nm. After washing the cells by a balanced salt, and homogenization in a solution of 0.1 M NaOH, the number of viable cells is determined by the level of cellular proteins (Bradford's method).
The results are expressed in % against control (cell culture medium without compound) as a mean on 1 to 3 assays, each in triplicate.

[2] = tested on: mushroom tyrosinase; assay: Mushroom tyrosinase inhibition assay; format: biochemical; conditions: DOPA substrate, pH 6.8
Experimental: In the melanin biosynthesis pathway, tyrosinase is a key enzyme catalyzing the initial steps: the oxidation of tyrosine into dihydroxyphenylalanine (DOPA) and of DOPA into Dopaquinone. In phosphate buffer at pH 6.8, DOPA is mixed with a range of concentration of the compound to be tested, and a control without compound. After addition of mushroom tyrosinase, oxidation of DOPA is recorded by measuring OD at 475 nm during 30 sec. The % of tyrosinase inhibition is expressed in % against control as a mean of 2-3 assays.

% of tyrosinase inhibition ([2]; dose 0.0001 % (w/v)) [%] | % of tyrosinase inhibition ([2]; dose 0.001 % (w/v)) [%] | % of tyrosinase inhibition ([2]; dose 0.01 % (w/v)) [%] | Structure (SMILES) | Melanin level ([1]; dose 0.001 % (w/v)) [%/control] | Melanin level ([1]; dose 0.003 % (w/v)) [%/control] | Protein level (rate of cellular proteins, viable cells by Bradford's method) ([1]; dose 0.001 % (w/v)) [%/control] | Protein level (rate of cellular proteins, viable cells by Bradford's method) ([1]; dose 0.003 % (w/v)) [%/control] | Melanin level ([1]; dose 0.01 % (w/v)) [%/control] | Protein level (rate of cellular proteins, viable cells by Bradford's method) ([1]; dose 0.01 % (w/v)) [%/control]
– | – | – | CN(N)C(=O)Nc1ccccc1 [1-amino-1-methyl-3-phenylurea] | 92 | 88 | 102 | 99 | – | –
31 | 55 | 89 | NNC(=O)Nc1ccccc1 [1-amino-3-phenylurea] | 79 | 47 | 95 | 94 | 19 | 104
– | – | – | Cc1ccc(NC(=O)NN)c(C)c1 [1-amino-3-(2,4-dimethylphenyl)urea] | 98 | 87 | 103 | 99 | – | –
